Results as given in the NIST ThermoML archive (doi:10.1016/j.tca.2012.07.004).

Assay: xn = mol fraction of the nth substance listed
Details: 101 kPa, Liquid; for mass density: Vibrating tube method; for viscosity: Vibrating wire viscometry; for speed of sound: ultrasonic interferometer

CCN(CC)CC.O=P(O)(O)O [triethylammonium dihydrogen phosphate] + CN1CCCC1=O
Details | mass density [kg/m3] | speed of sound [m/s] | viscosity [mPa·s]
298.15 K, x1 = 0.0115 | 1032 | 1574 | 1.95
298.15 K, x1 = 0.0257 | 1036.63 | 1580 | 2.23
298.15 K, x1 = 0.0702 | 1047.93 | 1602 | 2.5
298.15 K, x1 = 0.0995 | 1054.84 | 1624 | 3.22
298.15 K, x1 = 0.1498 | 1065.79 | 1657 | 4.42
298.15 K, x1 = 0.2409 | 1081.01 | 1711 | 6.12
298.15 K, x1 = 0.282 | 1086.8 | 1735 | 6.52
298.15 K, x1 = 0.3482 | 1094.7 | 1763 | 7.12
298.15 K, x1 = 0.4709 | 1105.46 | 1806 | 10.71
298.15 K, x1 = 0.6161 | 1114.03 | 1831 | 17.12
298.15 K, x1 = 0.6975 | 1117.42 | 1836 | 22.9
298.15 K, x1 = 0.7906 | 1120.24 | 1829 | 31.5
298.15 K, x1 = 0.9135 | 1123.51 | 1817 | 47.02
298.15 K, x1 = 0.9579 | 1124.64 | 1809 | 53.91
298.15 K, x1 = 1 | 1125.7 | 1794 | 64.31
303.15 K, x1 = 0.0115 | 1027.87 | 1558 | 0.97
303.15 K, x1 = 0.0257 | 1032.6 | 1570 | 1.24
303.15 K, x1 = 0.0702 | 1044.24 | 1595 | 2.49
303.15 K, x1 = 0.0995 | 1051.16 | 1620 | 3.17
303.15 K, x1 = 0.1498 | 1061.32 | 1656 | 3.8
303.15 K, x1 = 0.2409 | 1076.95 | 1706 | 5.27
303.15 K, x1 = 0.282 | 1083.03 | 1719 | 5.55
303.15 K, x1 = 0.3482 | 1090.71 | 1753 | 6.53
303.15 K, x1 = 0.4709 | 1101.42 | 1796 | 8.32
303.15 K, x1 = 0.6161 | 1110.51 | 1820 | 13.52
303.15 K, x1 = 0.6975 | 1114.2 | 1826 | 18.9
303.15 K, x1 = 0.7906 | 1117.34 | 1819 | 26.91
303.15 K, x1 = 0.9135 | 1121.34 | 1804 | 41.33
303.15 K, x1 = 0.9579 | 1123.03 | 1791 | 49.31
303.15 K, x1 = 1 | 1124.68 | 1769 | 57.1
308.15 K, x1 = 0.0115 | 1023.39 | 1539 | 1.07
308.15 K, x1 = 0.0257 | 1028.04 | 1544 | 1.05
308.15 K, x1 = 0.0702 | 1039.93 | 1577 | 1.97
308.15 K, x1 = 0.0995 | 1046.49 | 1600 | 2.57
308.15 K, x1 = 0.1498 | 1057.16 | 1636 | 2.91
308.15 K, x1 = 0.2409 | 1072.56 | 1689 | 4.13
308.15 K, x1 = 0.282 | 1078.25 | 1711 | 4.19
308.15 K, x1 = 0.3482 | 1086.21 | 1744 | 5.05
308.15 K, x1 = 0.4709 | 1097.31 | 1789 | 6.42
308.15 K, x1 = 0.6161 | 1106.86 | 1816 | 11
308.15 K, x1 = 0.6975 | 1111.06 | 1819 | 15.83
308.15 K, x1 = 0.7906 | 1114.71 | 1813 | 23.02
308.15 K, x1 = 0.9135 | 1119.77 | 1788 | 35.92
308.15 K, x1 = 0.9579 | 1121.61 | 1769 | 42.41
308.15 K, x1 = 1 | 1123.71 | 1757 | 49.53
313.15 K, x1 = 0.0115 | 1018.9 | 1540 | 1.61
313.15 K, x1 = 0.0257 | 1023.44 | 1552 | 1.37
313.15 K, x1 = 0.0702 | 1034.5 | 1576 | 1.48
313.15 K, x1 = 0.0995 | 1041.32 | 1594 | 1.81
313.15 K, x1 = 0.1498 | 1052.28 | 1630 | 1.88
313.15 K, x1 = 0.2409 | 1067.96 | 1685 | 1.95
313.15 K, x1 = 0.282 | 1074.06 | 1708 | 2.5
313.15 K, x1 = 0.3482 | 1081.89 | 1737 | 2.99
313.15 K, x1 = 0.4709 | 1093.3 | 1785 | 4.42
313.15 K, x1 = 0.6161 | 1103.08 | 1808 | 8.18
313.15 K, x1 = 0.6975 | 1107.89 | 1810 | 11.52
313.15 K, x1 = 0.7906 | 1111.88 | 1804 | 17.2
313.15 K, x1 = 0.9135 | 1117.73 | 1772 | 28.3
313.15 K, x1 = 0.9579 | 1119.92 | 1758 | 33.32
313.15 K, x1 = 1 | 1122.37 | 1730 | 38.31
